# Test results from ChEMBL document CHEMBL5653631, “A Potent and Selective ULK1 Inhibitor Suppresses Autophagy and Sensitizes Cancer Cells to Nutrient Stress” (iScience, 2018).
# Legend:
# [1] = molecular target: Serine/threonine-protein kinase PAK 1 (Homo sapiens) (UniProt Q13153); test: Inhibition of human recombinant PAK1 at 40 nM related to control ULK1
# [2] = molecular target: T1, Testis-specific serine/threonine-protein kinase 2 (Homo sapiens) (UniProt Q96PF2); test: Inhibition of human recombinant TSSK2 at 40 nM in presence of ATP by radiometric assay relative to control
# T1 sequence (whole entry): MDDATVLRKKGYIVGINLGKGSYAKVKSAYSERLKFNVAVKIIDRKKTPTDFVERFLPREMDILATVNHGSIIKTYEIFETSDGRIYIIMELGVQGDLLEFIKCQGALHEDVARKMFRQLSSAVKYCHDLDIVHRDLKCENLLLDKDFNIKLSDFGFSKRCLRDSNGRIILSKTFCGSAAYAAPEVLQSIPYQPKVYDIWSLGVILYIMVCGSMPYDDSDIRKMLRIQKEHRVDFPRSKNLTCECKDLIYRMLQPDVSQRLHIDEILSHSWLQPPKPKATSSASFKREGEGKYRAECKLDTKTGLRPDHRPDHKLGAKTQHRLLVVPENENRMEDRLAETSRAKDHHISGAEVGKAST
# [3] = molecular target: Serine/threonine-protein kinase SIK2 (Homo sapiens) (UniProt Q9H0K1); test: Inhibition of human recombinant QIK at 40 nM in presence of ATP by radiometric assay relative to control
# [4] = molecular target: Mast/stem cell growth factor receptor Kit (Homo sapiens) (UniProt P10721); test: Inhibition of human recombinant KIT at 15 nM in presence of ATP by radiometric assay relative to control
# [5] = molecular target: Leucine-rich repeat serine/threonine-protein kinase 2 (Homo sapiens) (UniProt Q5S007); test: Inhibition of human recombinant LRRK2 at 15 nM in presence of ATP by radiometric assay relative to control
# [6] = molecular target: T2, cAMP-dependent protein kinase catalytic subunit PRKX (Homo sapiens) (UniProt P51817); test: Inhibition of human recombinant PRKX at 15 nM related to control ULK1
# T2 sequence (whole entry): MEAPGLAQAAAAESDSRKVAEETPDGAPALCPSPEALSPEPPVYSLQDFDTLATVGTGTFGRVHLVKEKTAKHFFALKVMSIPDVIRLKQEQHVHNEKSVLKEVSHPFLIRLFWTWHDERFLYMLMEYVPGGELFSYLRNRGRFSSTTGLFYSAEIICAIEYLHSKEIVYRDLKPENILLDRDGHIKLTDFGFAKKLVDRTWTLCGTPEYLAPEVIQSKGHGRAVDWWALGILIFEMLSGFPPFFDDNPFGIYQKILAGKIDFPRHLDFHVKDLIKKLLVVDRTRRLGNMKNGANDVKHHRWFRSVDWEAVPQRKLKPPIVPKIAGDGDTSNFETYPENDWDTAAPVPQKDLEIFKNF
# [7] = molecular target: Fibroblast growth factor receptor 2 (Homo sapiens) (UniProt P21802); test: Inhibition of human recombinant FGFR2 at 15 nM related to control ULK1
# [8] = molecular target: T3, Mitogen-activated protein kinase kinase kinase 7 (Homo sapiens) (UniProt O43318); test: Inhibition of human recombinant TAK1 at 500 nM in presence of ATP by radiometric assay relative to control
# T3 sequence (whole entry): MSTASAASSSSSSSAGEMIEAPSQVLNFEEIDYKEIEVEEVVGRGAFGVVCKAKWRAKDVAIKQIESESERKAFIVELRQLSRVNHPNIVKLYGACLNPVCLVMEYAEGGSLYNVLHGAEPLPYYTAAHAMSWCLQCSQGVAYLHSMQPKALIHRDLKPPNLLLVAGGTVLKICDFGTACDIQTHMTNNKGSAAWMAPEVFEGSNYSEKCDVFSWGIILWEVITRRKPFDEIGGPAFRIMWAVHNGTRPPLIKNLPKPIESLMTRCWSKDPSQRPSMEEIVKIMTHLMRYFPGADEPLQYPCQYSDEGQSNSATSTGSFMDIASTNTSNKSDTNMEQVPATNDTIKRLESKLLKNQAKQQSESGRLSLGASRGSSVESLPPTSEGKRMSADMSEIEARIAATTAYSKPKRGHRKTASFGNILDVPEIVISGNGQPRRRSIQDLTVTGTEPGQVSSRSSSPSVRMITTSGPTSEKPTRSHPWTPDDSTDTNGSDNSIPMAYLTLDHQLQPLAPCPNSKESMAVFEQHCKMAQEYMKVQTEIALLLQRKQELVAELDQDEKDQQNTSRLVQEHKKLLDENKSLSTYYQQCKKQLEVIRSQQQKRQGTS
# [9] = molecular target: T4, Ephrin type-B receptor 2 (Homo sapiens) (UniProt P29323); test: Inhibition of human recombinant EphB2 at 500 nM in presence of ATP by radiometric assay relative to control
# T4 sequence (whole entry): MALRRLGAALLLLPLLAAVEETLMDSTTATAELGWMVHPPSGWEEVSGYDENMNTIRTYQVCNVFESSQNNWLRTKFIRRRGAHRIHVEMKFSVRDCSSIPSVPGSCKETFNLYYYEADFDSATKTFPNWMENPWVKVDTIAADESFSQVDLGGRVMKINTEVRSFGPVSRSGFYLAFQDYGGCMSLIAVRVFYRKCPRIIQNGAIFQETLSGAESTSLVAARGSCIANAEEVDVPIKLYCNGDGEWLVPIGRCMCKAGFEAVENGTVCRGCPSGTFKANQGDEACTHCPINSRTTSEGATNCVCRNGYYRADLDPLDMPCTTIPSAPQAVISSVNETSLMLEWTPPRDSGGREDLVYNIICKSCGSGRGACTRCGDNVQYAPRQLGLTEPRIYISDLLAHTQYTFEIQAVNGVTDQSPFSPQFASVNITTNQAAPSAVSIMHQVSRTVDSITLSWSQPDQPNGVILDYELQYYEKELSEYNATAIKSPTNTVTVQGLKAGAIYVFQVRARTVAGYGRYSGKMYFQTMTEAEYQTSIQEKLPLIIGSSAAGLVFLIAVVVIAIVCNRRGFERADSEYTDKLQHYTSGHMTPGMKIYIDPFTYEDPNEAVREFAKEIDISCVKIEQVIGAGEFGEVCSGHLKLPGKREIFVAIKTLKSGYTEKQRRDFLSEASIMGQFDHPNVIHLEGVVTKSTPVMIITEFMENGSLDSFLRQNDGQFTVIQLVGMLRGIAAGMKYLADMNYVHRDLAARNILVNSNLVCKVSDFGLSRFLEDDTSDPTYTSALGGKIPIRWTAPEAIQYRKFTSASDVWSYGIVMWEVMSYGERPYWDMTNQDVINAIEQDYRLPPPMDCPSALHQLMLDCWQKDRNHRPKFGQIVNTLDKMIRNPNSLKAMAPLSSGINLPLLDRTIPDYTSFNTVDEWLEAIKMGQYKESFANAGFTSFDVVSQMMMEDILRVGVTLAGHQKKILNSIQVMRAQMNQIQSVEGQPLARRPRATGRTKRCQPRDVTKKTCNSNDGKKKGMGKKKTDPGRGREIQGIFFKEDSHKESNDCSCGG
# Chain of Leucine-rich repeat serine/threonine-protein kinase 2 (Homo sapiens) (Q5S007 whole entry): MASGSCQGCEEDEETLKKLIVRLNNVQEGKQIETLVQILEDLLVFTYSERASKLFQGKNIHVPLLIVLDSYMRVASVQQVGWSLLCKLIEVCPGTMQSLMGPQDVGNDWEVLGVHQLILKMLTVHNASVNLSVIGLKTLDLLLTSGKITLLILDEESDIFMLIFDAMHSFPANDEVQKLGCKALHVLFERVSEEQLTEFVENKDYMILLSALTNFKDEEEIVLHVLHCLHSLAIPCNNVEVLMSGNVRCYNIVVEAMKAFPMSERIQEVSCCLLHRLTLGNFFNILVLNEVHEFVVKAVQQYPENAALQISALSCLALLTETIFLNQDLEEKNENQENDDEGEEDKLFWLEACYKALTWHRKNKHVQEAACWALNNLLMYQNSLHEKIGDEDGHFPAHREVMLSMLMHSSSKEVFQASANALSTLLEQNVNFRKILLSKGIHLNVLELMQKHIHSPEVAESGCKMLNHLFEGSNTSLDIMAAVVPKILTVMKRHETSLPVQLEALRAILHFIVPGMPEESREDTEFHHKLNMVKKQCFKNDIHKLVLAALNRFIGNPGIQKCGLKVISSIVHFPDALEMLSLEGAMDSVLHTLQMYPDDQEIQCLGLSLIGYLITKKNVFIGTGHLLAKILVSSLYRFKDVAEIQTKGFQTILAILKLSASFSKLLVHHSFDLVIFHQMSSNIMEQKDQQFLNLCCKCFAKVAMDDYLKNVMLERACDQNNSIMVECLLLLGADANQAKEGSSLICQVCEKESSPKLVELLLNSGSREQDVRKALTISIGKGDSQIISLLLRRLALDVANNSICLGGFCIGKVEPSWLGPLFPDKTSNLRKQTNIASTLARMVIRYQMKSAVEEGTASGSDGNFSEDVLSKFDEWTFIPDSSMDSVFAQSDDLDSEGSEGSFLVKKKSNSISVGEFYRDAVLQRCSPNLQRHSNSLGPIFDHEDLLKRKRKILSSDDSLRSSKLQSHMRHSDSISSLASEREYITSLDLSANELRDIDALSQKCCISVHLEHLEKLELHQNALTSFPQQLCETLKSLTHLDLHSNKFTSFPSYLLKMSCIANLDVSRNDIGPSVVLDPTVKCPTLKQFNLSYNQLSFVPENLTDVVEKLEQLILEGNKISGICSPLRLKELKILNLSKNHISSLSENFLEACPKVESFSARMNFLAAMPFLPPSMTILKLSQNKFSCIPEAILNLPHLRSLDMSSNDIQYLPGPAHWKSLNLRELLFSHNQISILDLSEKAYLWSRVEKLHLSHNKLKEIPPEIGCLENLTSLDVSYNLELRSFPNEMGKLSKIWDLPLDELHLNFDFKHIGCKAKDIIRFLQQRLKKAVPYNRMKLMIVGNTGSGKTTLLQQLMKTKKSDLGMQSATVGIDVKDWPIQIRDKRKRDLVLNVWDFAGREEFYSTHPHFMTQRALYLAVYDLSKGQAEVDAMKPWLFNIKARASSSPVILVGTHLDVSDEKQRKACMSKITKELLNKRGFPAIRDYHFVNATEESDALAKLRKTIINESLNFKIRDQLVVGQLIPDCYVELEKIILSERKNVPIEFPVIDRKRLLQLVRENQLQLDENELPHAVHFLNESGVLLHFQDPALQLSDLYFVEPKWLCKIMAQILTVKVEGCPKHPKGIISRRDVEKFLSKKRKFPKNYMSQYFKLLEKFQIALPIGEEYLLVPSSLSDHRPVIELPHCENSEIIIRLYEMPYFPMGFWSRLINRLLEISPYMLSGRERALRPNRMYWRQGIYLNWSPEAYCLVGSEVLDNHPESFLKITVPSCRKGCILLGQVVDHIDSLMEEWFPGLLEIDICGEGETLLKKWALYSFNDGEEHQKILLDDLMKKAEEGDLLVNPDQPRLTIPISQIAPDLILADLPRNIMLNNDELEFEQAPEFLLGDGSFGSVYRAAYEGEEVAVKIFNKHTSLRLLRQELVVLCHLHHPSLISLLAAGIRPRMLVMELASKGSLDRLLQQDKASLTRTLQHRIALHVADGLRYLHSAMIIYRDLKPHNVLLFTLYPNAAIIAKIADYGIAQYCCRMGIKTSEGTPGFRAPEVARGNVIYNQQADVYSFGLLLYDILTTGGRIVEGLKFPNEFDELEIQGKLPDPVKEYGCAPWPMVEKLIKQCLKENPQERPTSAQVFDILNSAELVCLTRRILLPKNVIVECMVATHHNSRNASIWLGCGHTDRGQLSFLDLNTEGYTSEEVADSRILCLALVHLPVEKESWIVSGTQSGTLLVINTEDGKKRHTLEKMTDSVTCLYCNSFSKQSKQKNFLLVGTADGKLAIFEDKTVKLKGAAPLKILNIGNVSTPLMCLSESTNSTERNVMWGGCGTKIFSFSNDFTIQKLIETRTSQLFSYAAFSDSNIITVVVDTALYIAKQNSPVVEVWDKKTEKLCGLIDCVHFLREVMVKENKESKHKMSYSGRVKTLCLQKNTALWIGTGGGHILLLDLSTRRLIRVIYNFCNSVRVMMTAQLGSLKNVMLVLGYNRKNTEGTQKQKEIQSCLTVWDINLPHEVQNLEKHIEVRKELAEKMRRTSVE
# Chain of Serine/threonine-protein kinase PAK 1 (Homo sapiens) (Q13153 whole entry, looked up): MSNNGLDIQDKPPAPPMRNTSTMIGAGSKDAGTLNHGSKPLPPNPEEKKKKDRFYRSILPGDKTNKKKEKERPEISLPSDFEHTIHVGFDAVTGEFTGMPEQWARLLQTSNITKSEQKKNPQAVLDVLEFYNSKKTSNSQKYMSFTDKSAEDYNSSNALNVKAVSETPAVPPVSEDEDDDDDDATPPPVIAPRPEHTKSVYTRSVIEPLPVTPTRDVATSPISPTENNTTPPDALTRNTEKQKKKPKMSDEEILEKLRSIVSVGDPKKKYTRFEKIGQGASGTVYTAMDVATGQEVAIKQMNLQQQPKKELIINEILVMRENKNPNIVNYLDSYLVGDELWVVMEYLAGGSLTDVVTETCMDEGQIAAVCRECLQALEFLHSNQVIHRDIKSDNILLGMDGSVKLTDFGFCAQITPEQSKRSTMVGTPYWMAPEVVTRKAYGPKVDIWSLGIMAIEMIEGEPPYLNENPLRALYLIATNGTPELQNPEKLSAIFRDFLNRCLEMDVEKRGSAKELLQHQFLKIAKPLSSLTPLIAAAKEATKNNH
# Chain of Serine/threonine-protein kinase SIK2 (Homo sapiens) (Q9H0K1 whole entry, looked up): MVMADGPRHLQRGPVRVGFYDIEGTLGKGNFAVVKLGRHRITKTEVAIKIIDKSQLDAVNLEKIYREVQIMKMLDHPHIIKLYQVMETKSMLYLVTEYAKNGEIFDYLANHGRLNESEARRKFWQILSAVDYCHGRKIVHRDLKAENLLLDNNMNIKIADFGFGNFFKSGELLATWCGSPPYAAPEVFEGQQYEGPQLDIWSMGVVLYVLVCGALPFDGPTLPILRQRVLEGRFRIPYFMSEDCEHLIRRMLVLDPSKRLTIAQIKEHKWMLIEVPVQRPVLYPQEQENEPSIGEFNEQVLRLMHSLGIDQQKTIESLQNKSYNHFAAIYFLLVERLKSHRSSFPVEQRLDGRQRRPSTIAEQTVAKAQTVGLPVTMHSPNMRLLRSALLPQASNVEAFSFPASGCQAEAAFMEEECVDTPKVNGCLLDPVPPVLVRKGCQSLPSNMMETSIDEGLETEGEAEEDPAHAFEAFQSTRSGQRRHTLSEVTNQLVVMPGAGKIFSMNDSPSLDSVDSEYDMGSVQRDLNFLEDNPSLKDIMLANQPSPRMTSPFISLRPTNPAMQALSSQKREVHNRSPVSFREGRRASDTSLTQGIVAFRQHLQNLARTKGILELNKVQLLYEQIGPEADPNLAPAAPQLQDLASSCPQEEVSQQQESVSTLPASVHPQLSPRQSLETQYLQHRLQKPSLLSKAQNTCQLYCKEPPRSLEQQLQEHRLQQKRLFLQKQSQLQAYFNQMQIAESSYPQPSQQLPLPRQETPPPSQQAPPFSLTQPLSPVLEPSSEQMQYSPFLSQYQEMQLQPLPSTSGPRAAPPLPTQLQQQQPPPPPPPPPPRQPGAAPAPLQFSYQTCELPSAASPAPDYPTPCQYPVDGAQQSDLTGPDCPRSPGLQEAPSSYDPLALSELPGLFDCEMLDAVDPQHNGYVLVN
# Chain of Fibroblast growth factor receptor 2 (Homo sapiens) (P21802 22-821 limits assumed): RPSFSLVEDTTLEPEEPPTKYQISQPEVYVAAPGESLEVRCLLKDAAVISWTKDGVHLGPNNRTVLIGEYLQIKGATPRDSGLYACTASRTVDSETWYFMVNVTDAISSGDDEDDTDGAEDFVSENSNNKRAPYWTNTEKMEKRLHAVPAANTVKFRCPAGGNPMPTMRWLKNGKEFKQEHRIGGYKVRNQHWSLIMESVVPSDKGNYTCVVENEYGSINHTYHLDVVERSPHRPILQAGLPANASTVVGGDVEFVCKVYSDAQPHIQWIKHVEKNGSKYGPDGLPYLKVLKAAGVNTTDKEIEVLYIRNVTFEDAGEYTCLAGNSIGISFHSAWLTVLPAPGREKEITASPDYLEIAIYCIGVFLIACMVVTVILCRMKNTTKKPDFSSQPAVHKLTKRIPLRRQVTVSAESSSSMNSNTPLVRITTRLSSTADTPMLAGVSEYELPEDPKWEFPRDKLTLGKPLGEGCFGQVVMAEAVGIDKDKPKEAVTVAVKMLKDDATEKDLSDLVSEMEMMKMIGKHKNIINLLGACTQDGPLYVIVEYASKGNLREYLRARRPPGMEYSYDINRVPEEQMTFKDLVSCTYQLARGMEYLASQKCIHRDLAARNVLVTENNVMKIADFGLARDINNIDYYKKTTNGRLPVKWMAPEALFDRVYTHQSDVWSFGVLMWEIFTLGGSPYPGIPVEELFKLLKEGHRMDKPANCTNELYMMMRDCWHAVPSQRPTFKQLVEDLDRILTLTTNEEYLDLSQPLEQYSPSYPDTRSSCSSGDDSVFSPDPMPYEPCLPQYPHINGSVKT
smiles,measurement,setting,value
O=C(N[C@@H](C1CC1)C(F)(F)F)c1cc(-c2cnn3cc(-c4ccc(F)cc4)cnc23)cs1,fold change (FC),[1],0
same,inhibition,[2],0%
same,inhibition,[3],54%
CC(C)[C@H](NC(=O)c1cc(-c2cnn3cc(-c4ccc(OCCN5CCCCC5)cc4)cnc23)cs1)C(F)(F)F,inhibition,[4],0%
same,inhibition,[5],3%
same,fold change (FC),[6],0.18
same,fold change (FC),[7],0
CNC(=O)c1ccccc1Oc1nc(Nc2cc(OC)c(OC)c(OC)c2)ncc1Br,inhibition,[8],2%
same,inhibition,[9],15%
